Data on 4 compounds can be found in paper PMC12143796, “Virtual screening of a random tripeptide library for easily prepared inhibitors of insect chitinolytic enzymes” (The Cell Surface, 2025).

Residues, ends and D or L forms follow the SMILES beside them.

What all share (format): biochemical
For assay [1], the target named is T1, OfHex1 (Ostrinia furnacalis, UniProt Q06GJ0).
T1 construct: PDB id is that of the docking structure
T1 sequence (Q06GJ0 23-594): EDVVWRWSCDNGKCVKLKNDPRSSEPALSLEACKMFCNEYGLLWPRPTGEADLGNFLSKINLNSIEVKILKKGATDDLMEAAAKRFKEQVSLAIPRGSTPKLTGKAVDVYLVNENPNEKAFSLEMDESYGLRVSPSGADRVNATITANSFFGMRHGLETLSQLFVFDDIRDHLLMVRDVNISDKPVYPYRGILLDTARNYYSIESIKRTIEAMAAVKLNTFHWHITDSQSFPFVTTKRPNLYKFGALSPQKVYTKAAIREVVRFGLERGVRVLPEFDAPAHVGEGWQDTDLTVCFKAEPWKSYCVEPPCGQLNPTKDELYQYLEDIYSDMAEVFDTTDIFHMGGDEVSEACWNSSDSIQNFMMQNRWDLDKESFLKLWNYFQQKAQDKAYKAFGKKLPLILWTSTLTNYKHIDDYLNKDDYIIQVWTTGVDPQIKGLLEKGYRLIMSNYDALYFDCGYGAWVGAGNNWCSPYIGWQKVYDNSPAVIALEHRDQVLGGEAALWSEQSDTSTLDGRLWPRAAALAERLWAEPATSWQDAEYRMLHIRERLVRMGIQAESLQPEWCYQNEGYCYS
Briefly: fluorescence assay of released 4-methylumbelliferone. As to conditions: read-out: % inhibition at 1 mM.

The target of a further assay is T2, OfChtI (Ostrinia furnacalis, UniProt Q2V6H4).
T2 construct: PDB id is that of the docking structure
The description is as above. As to conditions: read-out: % inhibition at 1 mM.

In assay [2] the target is T1, OfHex1. Put plainly: fluorescence of released 4-methylumbelliferone. As to conditions: 10 μM substrate, 20 mM sodium phosphate pH 6.0, 30 °C, 30 min.
Another assay concerns the target T3, OfChi-h (Ostrinia furnacalis, UniProt Q4AE59).
T3 construct: PDB id is that of the docking structure
Briefly: fluorescence assay of released 4-methylumbelliferone. Conditions: read-out: % inhibition at 1 mM.

T2 sequence (Q2V6H4 19-407): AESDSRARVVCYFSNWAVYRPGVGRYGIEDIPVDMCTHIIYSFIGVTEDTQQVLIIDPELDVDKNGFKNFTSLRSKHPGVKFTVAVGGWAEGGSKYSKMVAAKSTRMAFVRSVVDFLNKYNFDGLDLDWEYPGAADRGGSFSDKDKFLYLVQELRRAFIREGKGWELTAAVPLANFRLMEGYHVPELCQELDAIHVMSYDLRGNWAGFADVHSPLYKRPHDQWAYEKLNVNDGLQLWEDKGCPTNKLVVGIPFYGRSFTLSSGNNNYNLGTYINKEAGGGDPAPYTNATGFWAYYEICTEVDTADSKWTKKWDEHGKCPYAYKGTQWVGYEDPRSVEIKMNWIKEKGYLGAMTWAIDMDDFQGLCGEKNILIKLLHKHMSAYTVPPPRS
T3 sequence (Q4AE59 18-553): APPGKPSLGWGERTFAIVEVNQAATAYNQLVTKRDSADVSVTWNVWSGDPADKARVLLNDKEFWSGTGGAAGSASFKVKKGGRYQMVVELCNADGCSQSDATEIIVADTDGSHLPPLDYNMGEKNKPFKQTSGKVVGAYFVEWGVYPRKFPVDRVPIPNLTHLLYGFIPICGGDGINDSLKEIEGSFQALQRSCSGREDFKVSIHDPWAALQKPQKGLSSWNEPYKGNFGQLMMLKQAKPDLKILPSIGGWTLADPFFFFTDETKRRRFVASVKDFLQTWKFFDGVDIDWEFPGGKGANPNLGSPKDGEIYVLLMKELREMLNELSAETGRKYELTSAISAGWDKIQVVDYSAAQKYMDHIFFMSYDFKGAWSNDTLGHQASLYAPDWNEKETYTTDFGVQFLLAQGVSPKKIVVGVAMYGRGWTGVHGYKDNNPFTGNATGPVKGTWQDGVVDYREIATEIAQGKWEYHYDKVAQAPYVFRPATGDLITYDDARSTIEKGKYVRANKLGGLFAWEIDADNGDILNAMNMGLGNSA

In general, inhibition refers to the drop in the measured response relative to a control, in per cent. As for `N[C@@H](Cc1ccccc1)C(=O)N1CCC[C@H]1C(=O)N[C@@H](Cc1ccc(O)cc1)C(=O)O` [FPY] (H-Phe-Pro-Tyr-OH), the inhibition at 1000 µM on OfHex1 [1] and at OfChtI was less than 50% each time.
Consider `CC(=O)N[C@H]1[C@H](Oc2ccc3c(C)cc(=O)oc3c2)O[C@H](CO)[C@@H](O)[C@@H]1O` [MU-GlcNAc], for which the “fluorescence of released 4-methylumbelliferone” value at OfHex1 [2] was “the substrate for OfHex1 was MU-GlcNAc”.
For the compound `NC(=O)CC[C@H](N)C(=O)N[C@@H](Cc1c[nH]c2ccccc12)C(=O)N[C@@H](Cc1c[nH]c2ccccc12)C(=O)O` [QWW] (H-Gln-Trp-Trp-OH), the inhibition at 1000 µM at OfChtI worked out at 55.3%.
`N[C@@H](Cc1ccc(O)cc1)C(=O)N[C@@H](Cc1ccccc1)C(=O)N1CCC[C@H]1C(=O)O` [YFP] (H-Tyr-Phe-Pro-OH): the inhibition at 1000 µM at OfHex1 [1] was less than 50%; on OfChtI, less than 50%; on OfChi-h, 14.8%.
